Among the data in patent publication US11427615B2, “Peptide compound and application thereof, and composition containing peptide compound” (XDCEXPLORER (SHANGHAI) CO., LTD., priority 2017, dated 2022) are EC50 values, retold here.

Where two headings read alike, the source gives them in different places. Non-standard residues stand in square brackets, D forms with d. Residues, ends and D or L forms follow the SMILES beside them. *: point of attachment. X13 = CCCCCCCCCCCCCCCCSC1CC(=O)N(CCOCCOCCOCCOCCOCCOCCOCCOCCC(=O)*)C1=O; X8 = CCCCCCCCCCCCCCCCc1cn(CCOCCOCCOCCOCCOCCOCCOCCOCCC(=O)*)nn1; Ala(4-thiazolyl) = N[C@@H](Cc1cscn1)C(=O)O; PEG8 = NCCOCCOCCOCCOCCOCCOCCOCCOCCC(=O)O; dPhe(4-I) = N[C@H](Cc1ccc(I)cc1)C(=O)O; Arg(Me) = CNC(=N)NCCC[C@H](N)C(=O)O; Palmitoyl = CCCCCCCCCCCCCCCC(=O)*; Ala(cPr) = N[C@@H](CC1CC1)C(=O)O; Hyp = O=C(O)[C@@H]1C[C@@H](O)CN1; Gly(cPr) = N[C@H](C(=O)O)C1CC1; αMeL = CC(C)C[C@](C)(N)C(=O)O; Cba = N[C@@H](CC1CCC1)C(=O)O; Ac6c = NC1(C(=O)O)CCCCC1; Aze = O=C(O)[C@@H]1CCN1; Deg = CCC(N)(CC)C(=O)O; azaGly = NNC(=O)O

As a reminder, the EC50 is the concentration that produces a half-maximal response.

The target in this assay is T1, human kiss1 receptor (GPR54) (Homo sapiens, UniProt Q969F8).
T1 construct: host or cells: NFAT-bla CHO-K1 cells (Chinese hamster ovary), purchased recombinant cell line
T1 sequence (Q969F8 whole entry): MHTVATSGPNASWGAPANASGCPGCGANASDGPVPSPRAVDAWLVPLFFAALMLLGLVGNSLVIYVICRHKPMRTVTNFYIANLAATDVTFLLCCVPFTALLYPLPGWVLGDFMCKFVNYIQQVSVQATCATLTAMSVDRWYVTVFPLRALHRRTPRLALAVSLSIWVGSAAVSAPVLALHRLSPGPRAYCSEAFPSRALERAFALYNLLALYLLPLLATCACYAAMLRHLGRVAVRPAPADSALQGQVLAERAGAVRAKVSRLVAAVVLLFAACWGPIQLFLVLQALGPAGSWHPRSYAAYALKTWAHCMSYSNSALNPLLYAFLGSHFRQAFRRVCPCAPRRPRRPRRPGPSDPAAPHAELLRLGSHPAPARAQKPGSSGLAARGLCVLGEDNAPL
Description: Kiss1 receptor (GPR54) binding activity of agonists, FRET detection in NFAT-bla CHO-K1 cells. The settings on record: preliminary data, read-out: Preliminary measurement data (GPR54) EC50. The class given is cell-based.

[1] abbreviates: human kiss1 receptor (GPR54), NFAT-bla CHO-K1 cells, FRET, method of effect Embodiment 1.
Setting [2] is: GPR54, measured according to the method of effect Embodiment 1.

Description: Effect Embodiment 1 Determination of Kiss1 Receptor (GPR54) Binding Activity of Kiss1 Receptor (GPR54) Agonist
The binding activity test of each compound from the above the embodiments with kiss1 receptor (GPR54) was performed by fluorescence energy resonance transfer (FRET) detection technology to detect EC50 values of polypeptides and peptide analogs. The cells used in this experiment were NFAT-bla CHO-K1 cells (k1720, invitrogen, thermosher) that express human kiss1 receptor (GPR54). The specific operations were as follows:
Day 1: Seeding Cells in Plate
1. Microscope (CKX41, OLYMPUS), object lens×4 times, ocular lens×10 times. The cells were ensured in a good condition.
2. Digesting the cells, adding 3 ml of 0.05% pancreatin into a culture dish; cells were placed in a 37° C., 5% CO2 incubator for 2 minutes (Thermo Fisher). After the cells became round under the microscope, 7 ml of culture medium was added. The formula of culture medium was as follows: DMEM 90%, dialzedfbS10, NEAA 0.1 mM, HEPES 25 mM, Penicillin 100 U/ml, Streptomycin 100 μm/ml, pH7.3. After blowing and stirring, it was transferred to 15 mL centrifuge tube (430790, Corning). Centrifuge at 1000 rpm for 5 min (5810R, Eppendorf) and the supernatant was discard.
3. Adding 7 mL of culture medium (DMEM+0.1% BSA), it was pipetting into single cell suspension, after counting with Bio-RAD counter, the cell density was adjusted to 312,500 cells/ml.
4. Cells were inoculated into 384 well plates at 32 μL per well, and the cell number was controlled at 10000 cells/well. 32 μl of culture medium was added into the blank control.
Day 2: Dosing and Data Analysis
1) The compound to be tested was prepared into 50 mM working solution with DMSO.
2) 40 μl of the working solution of the compound to be tested was added into column 2 of row A-H of U-shaped 96-well plate (3797, comings), and 60 μl of DMSO was added into column 3-11. 20 μl of compound solution was sucked from the second column to the third column with a multichannel pipette blowing and stirring evenly; 20 μl of compound solution was absorbed from the third column with a multichannel pipette, then added into the fourth column, blowed and stirred to mix well; the compound was serially diluted 4-fold to a total of 10 concentrations. Column 1 and column 12 of 96-well plates were supplemented with 40 μl DMSO.
2. Intermediate Plate Configuration
1) AU-shaped 96-well plate was used, 199 μL of culture medium (DMEM+0.1% BSA) was added to each well, 1 μL of diluted compound (or DMSO) was sucked from 1000× compound plate and added into the 96-well plate at the corresponding position, blowed and stirred to mix well.
2) Homemade positive compounds and compounds to be tested were added. The cell culture plate was took out from the incubator and cells state was observed under microscope. Diluted compound in the intermediate plate or DMSO was added into the cell, 8 μl per well.
3) Cells were cultured in 37° C. and 5% CO2 for 4 hours.
3. The Substrate was Added to Detect the Binding of the Drug to the Receptor
1) 1 μmol/L CCF-4AM solution and buffer solution B, C, D were equilibrated to room temperature. LiveBLAZER™-FRET B/G Loading Kit (K1095, thermo Fisher) containing CCF-4AM and solution B, solution C, solution D were also available from Invitrogen (K1157, thermo Fisher).
2) 6× loading solution was prepared: 6 μl of CCF-4AM dissolved solution A, 60 μl of solution b, 904 μl of solution c, and 30 μl of solution D were pipetted into EP tube, blowed and stirred to mix well.
3) 8 μl of the above-mentioned liquid was sucked with a multichannel pipette, added into a 96-well plate, and incubated for 2 hours at room temperature.
4) The PerkinElmer detector was used to detect the luminous signals of each hole. FI mode, λex=409 nm, λem1=460 nm, λem2=530 nm.
4. Data Processing Using Graphpad Prism 5 (GraphPad Software. Inc)
Effective rate %=(Signal−Min)/(Max−Min)×100%.

Consider `CCC(CC)(NC(=O)[C@H](Cc1ccccc1)NC(=O)[C@@H](NC(=O)[C@H](CC(N)=O)NC(=O)[C@@H]1C[C@@H](O)CN1C(=O)[C@@H](Cc1ccc(O)cc1)NC(C)=O)[C@@H](C)O)C(=O)N[C@@H](CC(C)C)C(=O)N[C@@H](CCCNC(=N)NC)C(=O)N[C@@H](Cc1c[nH]c2ccccc12)C(N)=O` [YA-355, Ac-(D-Tyr)-Hyp-Asn-Thr-Phe-Deg-Leu-Arg(Me)-Trp-NH2] (Ac-[dY][Hyp]NTF[Deg]L[Arg(Me)]W-NH2), for which, under setting [1], the EC50 was determined as 1.2 nM.

Regarding `CNC(=N)NCCC[C@H](NC(=O)[C@H](CC(C)C)NC(=O)[C@H](Cc1cscn1)NC(=O)[C@H](Cc1ccccc1)NC(=O)[C@@H](NC(=O)[C@H](CC(N)=O)NC(=O)[C@@H]1C[C@@H](O)CN1C(=O)[C@@H](Cc1ccc(O)cc1)NC(C)=O)[C@@H](C)O)C(=O)N[C@@H](Cc1c[nH]c2ccccc12)C(N)=O` [YA-357, Ac-(D-Tyr)-Hyp-Asn-Thr-Phe-Beta-(thiazoly-4-yl)-L-Ala-Leu-Arg(Me)-Trp-NH2] (Ac-[dY][Hyp]NTF[Ala(4-thiazolyl)]L[Arg(Me)]W-NH2), the EC50 under setting [2] amounted to 0.3 nM. Take `CNC(=N)NCCC[C@H](NC(=O)[C@H](CC(C)C)NC(=O)NNC(=O)[C@H](Cc1ccccc1)NC(=O)[C@@H](NC(=O)[C@H](CC(N)=O)NC(=O)[C@@H]1C[C@@H](O)CN1C(=O)[C@@H](Cc1ccc(I)cc1)NC(C)=O)[C@@H](C)O)C(=O)N[C@@H](Cc1c[nH]c2ccccc12)C(N)=O` [YA-358, Ac-(D-Phe(4-I))-Hyp-Asn-Thr-Phe-azaGly-Leu-Arg(Me)-Trp-NH2] (Ac-[dPhe(4-I)][Hyp]NTF[azaGly]L[Arg(Me)]W-NH2): the EC50 under setting [2] stood at 0.032 nM. On to `CCCCCCCCCCCCCCCC(=O)NCCOCCOCCOCCOCCOCCOCCOCCOCCC(=O)NCC(=O)NCC(=O)N[C@H](Cc1ccc(I)cc1)C(=O)N1C[C@H](O)C[C@H]1C(=O)N[C@@H](CC(N)=O)C(=O)N[C@H](C(=O)N[C@@H](Cc1ccccc1)C(=O)NNC(=O)N[C@@H](CC(C)C)C(=O)N[C@@H](CCCNC(=N)NC)C(=O)N[C@@H](Cc1c[nH]c2ccccc12)C(N)=O)[C@@H](C)O` [YA-366, Palm-PEG8-Gly-Gly-(D-Phe(4-I))-Hyp-Asn-Thr-Phe-AzaGly-Leu-Arg(Me)-Trp-NH2] ({Palmitoyl-PEG8}-GG[dPhe(4-I)][Hyp]NTF[azaGly]L[Arg(Me)]W-NH2), for which the EC50 under setting [2] came out at 0.048 nM. Still for that read-out and setting: the value for `CCCCCCCCCCCCCCCCc1cn(CCOCCOCCOCCOCCOCCOCCOCCOCCC(=O)NCC(=O)NCC(=O)N[C@H](Cc2ccc(O)cc2)C(=O)N2C[C@H](O)C[C@H]2C(=O)N[C@@H](CC(N)=O)C(=O)N[C@H](C(=O)N[C@@H](Cc2ccccc2)C(=O)NNC(=O)N[C@@H](CC(C)C)C(=O)N[C@@H](CCCNC(=N)NC)C(=O)N[C@@H](Cc2c[nH]c3ccccc23)C(N)=O)[C@@H](C)O)nn1` [YA-367, M10 [Hexadecyl-1,2,3-Triazole-PEG8, G43, G44, D-Tyr45, Hyp46, des47, T49, AzaGly51, R(Me)53, W54]] (X8-GG[dY][Hyp]NTF[azaGly]L[Arg(Me)]W-NH2) was 0.103 nM. On the same count and under the same terms, the value for `CCCCCCCCCCCCCCCCSC1CC(=O)N(CCOCCOCCOCCOCCOCCOCCOCCOCCC(=O)NCC(=O)NCC(=O)N[C@H](Cc2ccc(O)cc2)C(=O)N2C[C@H](O)C[C@H]2C(=O)N[C@@H](CC(N)=O)C(=O)N[C@H](C(=O)N[C@@H](Cc2ccccc2)C(=O)NNC(=O)N[C@@H](CC(C)C)C(=O)N[C@@H](CCCNC(=N)NC)C(=O)N[C@@H](Cc2c[nH]c3ccccc23)C(N)=O)[C@@H](C)O)C1=O` (stereo partly drawn) [YA-368, M10 [Hexadecyl-S-maleimide-PEG8, G43, G44, D-Tyr45, Hyp46, des47, T49, AzaGly51, R(Me)53, W54]] (X13-GG[dY][Hyp]NTF[azaGly]L[Arg(Me)]W-NH2) was 0.051 nM. `CNC(=N)NCCC[C@H](NC(=O)[C@H](CC(C)C)NC(=O)[C@](C)(CC(C)C)NC(=O)[C@H](Cc1ccccc1)NC(=O)[C@@H](NC(=O)[C@H](CC(N)=O)NC(=O)[C@@H]1C[C@@H](O)CN1C(=O)[C@@H](Cc1ccc(O)cc1)NC(C)=O)[C@@H](C)O)C(=O)N[C@@H](Cc1c[nH]c2ccccc12)C(N)=O` [YA-370, Ac-(D-Tyr)-Hyp-Asn-Thr-Phe-(α-Me-Leu)-Leu-Arg(Me)-Trp-NH2] (Ac-[dY][Hyp]NTF[αMeL]L[Arg(Me)]W-NH2): the EC50 under setting [1] worked out at 1.56 nM. Take `CNC(=N)NCCC[C@H](NC(=O)[C@H](CC(C)C)NC(=O)NNC(=O)[C@H](Cc1ccccc1)NC(=O)[C@@H](NC(=O)[C@H](CC(N)=O)NC(=O)[C@](C)(CC(C)C)NC(=O)[C@@H](Cc1ccc(O)cc1)NC(C)=O)[C@@H](C)O)C(=O)N[C@@H](Cc1c[nH]c2ccccc12)C(N)=O` [YA-379, Ac-(D-Tyr)-AlphaMeLeu-Asn-Thr-Phe-azaGly-Leu-Arg(Me)-Trp-NH2] (Ac-[dY][αMeL]NTF[azaGly]L[Arg(Me)]W-NH2): the EC50 under setting [2] is 0.015 nM.

Consider `CNC(=N)NCCC[C@H](NC(=O)[C@H](CC(C)C)NC(=O)NNC(=O)[C@H](Cc1ccccc1)NC(=O)[C@@H](NC(=O)[C@H](CC(N)=O)NC(=O)[C@H](CC1CCC1)NC(=O)[C@@H](Cc1ccc(O)cc1)NC(C)=O)[C@@H](C)O)C(=O)N[C@@H](Cc1c[nH]c2ccccc12)C(N)=O` [YA-380, Ac-(D-Tyr)-Cba-Asn-Thr-Phe-azaGly-Leu-Arg(Me)-Trp-NH2] (Ac-[dY][Cba]NTF[azaGly]L[Arg(Me)]W-NH2), for which the EC50 under setting [2] stood at 0.191 nM.

On to `CNC(=N)NCCC[C@H](NC(=O)[C@H](CC(C)C)NC(=O)NNC(=O)[C@H](Cc1ccccc1)NC(=O)[C@@H](NC(=O)[C@H](CC(N)=O)NC(=O)[C@H](CC1CC1)NC(=O)[C@@H](Cc1ccc(O)cc1)NC(C)=O)[C@@H](C)O)C(=O)N[C@@H](Cc1c[nH]c2ccccc12)C(N)=O` [YA-383, Ac-(D-Tyr)-Cpa-Asn-Thr-Phe-azaGly-Leu-Arg(Me)-Trp-NH2] (Ac-[dY][Ala(cPr)]NTF[azaGly]L[Arg(Me)]W-NH2), for which, under setting [2], the EC50 is 0.074 nM. On the same count and under the same terms, the value for `CNC(=N)NCCC[C@H](NC(=O)[C@H](CC(C)C)NC(=O)NNC(=O)[C@H](Cc1ccccc1)NC(=O)C1(NC(=O)[C@H](CC(N)=O)NC(=O)[C@@H]2C[C@@H](O)CN2C(=O)[C@@H](Cc2ccc(O)cc2)NC(C)=O)CCCCC1)C(=O)N[C@@H](Cc1c[nH]c2ccccc12)C(N)=O` [YA-387, Ac-(D-Tyr)-Hyp-Asn-A6c-Phe-azaGly-Leu-Arg(Me)-Trp-NH2] (Ac-[dY][Hyp]N[Ac6c]F[azaGly]L[Arg(Me)]W-NH2) was 0.041 nM; that for `CNC(=N)NCCC[C@H](NC(=O)[C@H](CC(C)C)NC(=O)NNC(=O)[C@H](Cc1ccccc1)NC(=O)[C@@H]1CCN1C(=O)[C@H](CC(N)=O)NC(=O)[C@@H]1C[C@@H](O)CN1C(=O)[C@@H](Cc1ccc(O)cc1)NC(C)=O)C(=O)N[C@@H](Cc1c[nH]c2ccccc12)C(N)=O` [YA-388, Ac-(D-Tyr)-Hyp-Asn-Aze-Phe-azaGly-Leu-Arg(Me)-Trp-NH2] (Ac-[dY][Hyp]N[Aze]F[azaGly]L[Arg(Me)]W-NH2) was 0.058 nM. For the compound `CNC(=N)NCCC[C@H](NC(=O)[C@H](CC(C)C)NC(=O)[C@@H](NC(=O)[C@H](Cc1ccccc1)NC(=O)[C@@H](NC(=O)[C@H](CC(N)=O)NC(=O)[C@@H]1C[C@@H](O)CN1C(=O)[C@@H](Cc1ccc(O)cc1)NC(C)=O)[C@@H](C)O)C1CC1)C(=O)N[C@@H](Cc1c[nH]c2ccccc12)C(N)=O` [YA-396, Ac-(D-Tyr)-Hyp-Asn-Thr-Phe-Cpg-Leu-Leu-Arg(Me)-Trp-NH2] (Ac-[dY][Hyp]NTF[Gly(cPr)]L[Arg(Me)]W-NH2), under setting [1], the EC50 stood at 1.19 nM.
